Assay results reported in ChEMBL document CHEMBL5247620, “Lupane derivatives containing various aryl substituents in the position 3 have selective cytostatic effect in leukemic cancer cells including resistant phenotypes” (Eur J Med Chem, 2022).
Active and inactive are the calls of the source. No cut-off for these calls is given here.

Key:
[1] = Chemical stability of the compound in PBS buffer assessed as compound remaining at pH 7.4 at 2 uM measured after 60 mins by RF-MS analysis; format: physicochemical; details: read-out: Stability
[2] = tested on: CCRF-CEM; experiment: Induction of cell cycle arrest in human CCRF-CEM cells assessed as decrease of cell population at S phase at 1 times IC50 concentration incubated for 24 to 72 hrs by propidium iodide staining based flow cytometry; format: functional; details: time 24-72 hrs
[3] = Microsomal stability in human liver microsome as compound remaining at 2 uM measured after 60 mins in presence of NADPH by RF-MS analysis; format: ADME; details: liver microsomes, read-out: Stability
[4] = Microsomal stability in human liver microsome as compound remaining at 2 uM measured after 15 mins in presence of NADPH by RF-MS analysis; format: ADME; details: liver microsomes, read-out: Stability
[5] = tested on: CCRF-CEM; experiment: Induction of apoptosis in human CCRF-CEM cells assessed as decrease in cell number at 5 times IC50 concentration incubated for 24 to 74 hrs by annexin V FITC/propidium iodide staining based flow cytometry; format: functional; details: time 24-74 hrs
[6] = tested on: CCRF-CEM; experiment: Induction of apoptosis in human CCRF-CEM cells assessed as effect on total Rb protein level at 1 times IC50 concentration incubated for 24 hrs by western blot assay; format: functional, cell-based
[7] = Plasma stability in human assessed as compound remaining at 2 uM measured after 60 mins by RF-MS analysis; format: ADME, cell-free; details: read-out: Stability
[8] = tested on: A549; experiment: Cytotoxicity against human A549 cells assessed as inhibition of cell growth incubated for 72 hrs by MTS assay; format: functional, cell-based; details: A549, 72 h
[9] = tested on: CCRF-CEM; experiment: Induction of cell cycle arrest in human CCRF-CEM cells assessed as accumulation of cells at G1 phase at 1 times IC50 concentration incubated for 24 to 72 hrs by propidium iodide staining based flow cytometry; format: functional; details: time 24-72 hrs
[10] = Microsomal stability in human liver microsome as compound remaining at 2 uM measured after 30 mins in presence of NADPH by RF-MS analysis; format: ADME; details: liver microsomes, read-out: Stability
[11] = Apparent permeability across apical to basolateral side in human Caco-2 cells incubated for 2 hr by high-throughput spectrometric analysis; format: ADME, cell-based
[12] = Cytotoxicity against human BJ cells assessed as inhibition of cell growth incubated for 72 hrs by MTS assay; format: toxicity, cell-based
[13] = tested on: CCRF-CEM; experiment: Induction of apoptosis in human CCRF-CEM cells assessed as viable cells at 1 times IC50 concentration incubated for 24 hrs by annexin V FITC/propidium iodide staining based flow cytometry (reference value: 96 %); format: functional
[14] = Apparent permeability across apical to basolateral side in human Caco-2 cells assessed as drug recovery incubated for 2 hr by high-throughput spectrometric analysis; format: ADME, cell-based; details: read-out: Drug recovery
[15] = Apparent permeability across apical to basolateral side in dog MDCK-MDR1 cells assessed as drug recovery incubated for 1 hr by high-throughput spectrometric analysis; format: ADME, cell-based, Canis lupus familiaris; details: read-out: Drug recovery
[16] = tested on: CCRF-CEM; experiment: Induction of apoptosis in human CCRF-CEM cells assessed as decrease in cell number at 1 times IC50 concentration incubated for 24 to 74 hrs by annexin V FITC/propidium iodide staining based flow cytometry; format: functional; details: time 24-74 hrs
[17] = Chemical stability of the compound in PBS buffer assessed as compound remaining at pH 7.4 at 2 uM measured after 30 mins by RF-MS analysis; format: physicochemical; details: read-out: Stability
[18] = Efflux ratio of apparent permeability from basolateral to apical side over apical to basolateral side in human Caco-2 cells incubated for 2 hr by high-throughput spectrometric analysis; format: ADME, cell-based
[19] = tested on: CCRF-CEM; experiment: Induction of apoptosis in human CCRF-CEM cells assessed as effect on total Rb protein level at 5 times IC50 concentration incubated for 24 hrs by western blot assay; format: functional, cell-based
[20] = tested on: CCRF-CEM; experiment: Induction of apoptosis in human CCRF-CEM cells assessed as viable cells at 5 times IC50 concentration incubated for 24 hrs by annexin V FITC/propidium iodide staining based flow cytometry (reference value: 96 %); format: functional
[21] = Efflux ratio of apparent permeability from basolateral to apical side over apical to basolateral side in dog MDCK-MDR1 cells incubated for 1 hr by high-throughput spectrometric analysis; format: ADME, cell-based, Canis lupus familiaris
[22] = Cytotoxicity against human K562-Tax cells assessed as inhibition of cell growth incubated for 72 hrs by MTS assay; format: functional, cell-based
[23] = tested on: U2OS; experiment: Cytotoxicity against human U2OS cells assessed as inhibition of cell growth incubated for 72 hrs by MTS assay; format: functional, cell-based
[24] = tested on: HCT-116; experiment: Cytotoxicity against human HCT-116 cells assessed as inhibition of cell growth incubated for 72 hrs by MTS assay; format: functional, cell-based; details: HCT-116, 72 h
[25] = Apparent permeability across apical to basolateral side in dog MDCK-MDR1 cells incubated for 1 hr by high-throughput spectrometric analysis; format: ADME, cell-based, Canis lupus familiaris
[26] = tested on: CEM-DNR; experiment: Cytotoxicity against human CEM-DNR cells assessed as inhibition of cell growth incubated for 72 hrs by MTS assay; format: functional, cell-based
[27] = tested on: CCRF-CEM; experiment: Induction of apoptosis in human CCRF-CEM cells assessed as early apoptotic cells at 5 times IC50 concentration incubated for 24 hrs by annexin V FITC/propidium iodide staining based flow cytometry (reference value: 2.6 %); format: functional
[28] = tested on: K562; experiment: Cytotoxicity against human K562 cells assessed as inhibition of cell growth incubated for 72 hrs by MTS assay; format: functional, cell-based; details: K562, 72 h
[29] = tested on: CCRF-CEM; experiment: Induction of apoptosis in human CCRF-CEM cells assessed as late apoptotic cells at 1 times IC50 concentration incubated for 24 hrs by annexin V FITC/propidium iodide staining based flow cytometry (reference value: 1.4 %); format: functional
[30] = Chemical stability of the compound in PBS buffer assessed as compound remaining at pH 7.4 at 2 uM measured after 15 mins by RF-MS analysis; format: physicochemical; details: read-out: Stability
[31] = Chemical stability of the compound in PBS buffer assessed as compound remaining at pH 7.4 at 2 uM measured after 120 mins by RF-MS analysis; format: physicochemical; details: read-out: Stability
[32] = tested on: CCRF-CEM; experiment: Cytotoxicity against human CCRF-CEM cells assessed as inhibition of cell growth incubated for 72 hrs by MTS assay; format: functional, cell-based
[33] = tested on: CCRF-CEM; experiment: Induction of cell cycle arrest in human CCRF-CEM cells assessed as accumulation of cells at G1 phase at 5 times IC50 concentration incubated for 24 to 72 hrs by propidium iodide staining based flow cytometry; format: functional; details: time 24-72 hrs
[34] = Plasma protein binding in human assessed as fraction bound at 10 uM incubated for 4 hrs by rapid equilibrium dialysis based RF-MS analysis; format: ADME, cell-free; details: read-out: PPB (converted)
[35] = Plasma stability in human assessed as compound remaining at 2 uM measured after 30 mins by RF-MS analysis; format: ADME, cell-free; details: read-out: Stability
[36] = Plasma stability in human assessed as compound remaining at 2 uM measured after 120 mins by RF-MS analysis; format: ADME, cell-free; details: read-out: Stability
[37] = Cytotoxicity against human MRC5 cells assessed as inhibition of cell growth incubated for 72 hrs by MTS assay; format: toxicity, cell-based
[38] = tested on: CCRF-CEM; experiment: Induction of apoptosis in human CCRF-CEM cells assessed as late apoptotic cells at 5 times IC50 concentration incubated for 24 hrs by annexin V FITC/propidium iodide staining based flow cytometry (reference value: 1.4 %); format: functional
[39] = Plasma stability in human assessed as compound remaining at 2 uM measured after 15 mins by RF-MS analysis; format: ADME, cell-free; details: read-out: Stability
[40] = Cytotoxicity against human p53HCT116 cells assessed as inhibition of cell growth incubated for 72 hrs by MTS assay; format: functional, cell-based; details: p53HCT116, 72 h
[41] = tested on: CCRF-CEM; experiment: Induction of apoptosis in human CCRF-CEM cells assessed as early apoptotic cells at 1 times IC50 concentration incubated for 24 hrs by annexin V FITC/propidium iodide staining based flow cytometry (reference value: 2.6 %); format: functional
[42] = tested on: CCRF-CEM; experiment: Induction of cell cycle arrest in human CCRF-CEM cells assessed as decrease of cell population at S phase at 5 times IC50 concentration incubated for 24 to 72 hrs by propidium iodide staining based flow cytometry; format: functional; details: time 24-72 hrs
[43] = tested on: CCRF-CEM; experiment: Induction of apoptosis in human CCRF-CEM cells assessed as decrease in cyclin A protein expression level at 5 times IC50 concentration incubated for 24 hrs by western blot assay; format: functional, cell-based
[44] = tested on: CCRF-CEM; experiment: Induction of apoptosis in human CCRF-CEM cells assessed as decrease in Rb phosphorylation level at Ser780 at 5 times IC50 concentration incubated for 24 hrs by western blot assay; format: functional, cell-based
[45] = tested on: CCRF-CEM; experiment: Induction of apoptosis in human CCRF-CEM cells assessed as decrease in Rb phosphorylation level at Ser807/811 at 5 times IC50 concentration incubated for 24 hrs by western blot assay; format: functional, cell-based
[46] = tested on: CCRF-CEM; experiment: Induction of apoptosis in human CCRF-CEM cells assessed as decrease in Bcl-2 protein expression level at 5 times IC50 concentration incubated for 24 hrs by western blot assay; format: functional, cell-based

## C=C(C)[C@@H]1CC[C@]2(C(=O)O)CC[C@]3(C)[C@H](CC[C@@H]4[C@@]5(C)CC=C(c6ccc(O)cc6)C(C)(C)[C@@H]5CC[C@]43C)[C@@H]12
[1]
  remaining at 1 h, 2 µM: 94%
[2]
  Activity: Active
[3]
  remaining at 1 h, 2 µM: 92.9%
[4]
  remaining at 0.25 h, 2 µM: 96.7%
[5]
  Activity: Active
[6]
  Activity: inactive
[7]
  remaining at 1 h, 2 µM: 86.8%
[8]
  IC50: 6.2 µM
[9]
  Activity: Active
[10]
  remaining at 0.5 h, 2 µM: 93.2%
[11]
  Papp A→B at 2 h: 1.69 ×10⁻⁶ cm/s
[12]
  IC50 at 72 h: 31 µM
[13]
  Activity: 95%
[14]
  recovery at 2 h: 65.2%
[15]
  recovery at 1 h: 55.9%
[16]
  Activity: Active
[17]
  remaining at 0.5 h, 2 µM: 98.7%
[18]
  efflux ratio at 2 h: 1.47
[19]
  Activity: inactive
[20]
  Activity: 94.2%
[21]
  efflux ratio at 1 h: 2.05
[22]
  IC50: 3.3 µM
[23]
  IC50: 11 µM
[24]
  IC50: 7.4 µM
[25]
  Papp A→B at 1 h: 4.27 ×10⁻⁶ cm/s
[26]
  IC50: 3.3 µM
[27]
  Activity: 3.9%
[28]
  IC50: 6.2 µM
[29]
  Activity: 1.6%
[30]
  remaining at 0.25 h, 2 µM: 98.9%
[31]
  remaining at 2 h, 2 µM: 89.6%
[32]
  IC50: 690 nM
[33]
  Activity: Active
[34]
  fraction unbound at 4 h, 10 µM: 0.242
[35]
  remaining at 0.5 h, 2 µM: 88.1%
[36]
  remaining at 2 h, 2 µM: 74.4%
[37]
  IC50 at 72 h: 27 µM
[38]
  Activity: 1.9%
[39]
  remaining at 0.25 h, 2 µM: 93.9%
[40]
  IC50: 6.4 µM
[41]
  Activity: 3.4%
[42]
  Activity: Active

## C=C(C)[C@@H]1CC[C@]2(C(=O)O)CC[C@]3(C)[C@H](CC[C@@H]4[C@@]5(C)CC=C(c6cccc(N)c6)C(C)(C)[C@@H]5CC[C@]43C)[C@@H]12
[1]
  remaining at 1 h, 2 µM: 91.8%
[2]
  Activity: Active
[43]
  Activity: Active
[3]
  remaining at 1 h, 2 µM: 94.8%
[4]
  remaining at 0.25 h, 2 µM: 108%
[5]
  Activity: Active
[6]
  Activity: inactive
[7]
  remaining at 1 h, 2 µM: 82.5%
[8]
  IC50: 9.7 µM
[44]
  Activity: Active
[9]
  Activity: Active
[10]
  remaining at 0.5 h, 2 µM: 107%
[11]
  Papp A→B at 2 h: 0.053 ×10⁻⁶ cm/s
[12]
  IC50 at 72 h: 50 µM
[13]
  Activity: 95.2%
[14]
  recovery at 2 h: 106%
[15]
  recovery at 1 h: 31.5%
[16]
  Activity: Active
[17]
  remaining at 0.5 h, 2 µM: 91.7%
[18]
  efflux ratio at 2 h: 3.92
[19]
  Activity: inactive
[20]
  Activity: 94.8%
[21]
  efflux ratio at 1 h: 7.23
[22]
  IC50: 9 µM
[23]
  IC50: 31 µM
[24]
  IC50: 12 µM
[25]
  Papp A→B at 1 h: 1.73 ×10⁻⁶ cm/s
[26]
  IC50: 8.9 µM
[27]
  Activity: 3.4%
[28]
  IC50: 36 µM
[29]
  Activity: 1.5%
[30]
  remaining at 0.25 h, 2 µM: 95.5%
[45]
  Activity: Active
[31]
  remaining at 2 h, 2 µM: 96.7%
[32]
  IC50: 1800 nM
[33]
  Activity: Active
[34]
  fraction unbound at 4 h, 10 µM: 0.502
[35]
  remaining at 0.5 h, 2 µM: 88.7%
[36]
  remaining at 2 h, 2 µM: 71.5%
[46]
  Activity: Active
[37]
  IC50 at 72 h: 47 µM
[38]
  Activity: 1.8%
[39]
  remaining at 0.25 h, 2 µM: 97.7%
[40]
  IC50: 10 µM
[41]
  Activity: 3.3%
[42]
  Activity: Active
